The record followed here is patent US9938261B2, “Heterocyclic compounds and methods of use thereof” (AMBIT BIOSCIENCES CORPORATION, priority 2011, dated 2018).

One assay concerns the target T1, FLT3 (Homo sapiens, UniProt P36888).
T1 construct: made in house
T1 sequence (P36888 27-993): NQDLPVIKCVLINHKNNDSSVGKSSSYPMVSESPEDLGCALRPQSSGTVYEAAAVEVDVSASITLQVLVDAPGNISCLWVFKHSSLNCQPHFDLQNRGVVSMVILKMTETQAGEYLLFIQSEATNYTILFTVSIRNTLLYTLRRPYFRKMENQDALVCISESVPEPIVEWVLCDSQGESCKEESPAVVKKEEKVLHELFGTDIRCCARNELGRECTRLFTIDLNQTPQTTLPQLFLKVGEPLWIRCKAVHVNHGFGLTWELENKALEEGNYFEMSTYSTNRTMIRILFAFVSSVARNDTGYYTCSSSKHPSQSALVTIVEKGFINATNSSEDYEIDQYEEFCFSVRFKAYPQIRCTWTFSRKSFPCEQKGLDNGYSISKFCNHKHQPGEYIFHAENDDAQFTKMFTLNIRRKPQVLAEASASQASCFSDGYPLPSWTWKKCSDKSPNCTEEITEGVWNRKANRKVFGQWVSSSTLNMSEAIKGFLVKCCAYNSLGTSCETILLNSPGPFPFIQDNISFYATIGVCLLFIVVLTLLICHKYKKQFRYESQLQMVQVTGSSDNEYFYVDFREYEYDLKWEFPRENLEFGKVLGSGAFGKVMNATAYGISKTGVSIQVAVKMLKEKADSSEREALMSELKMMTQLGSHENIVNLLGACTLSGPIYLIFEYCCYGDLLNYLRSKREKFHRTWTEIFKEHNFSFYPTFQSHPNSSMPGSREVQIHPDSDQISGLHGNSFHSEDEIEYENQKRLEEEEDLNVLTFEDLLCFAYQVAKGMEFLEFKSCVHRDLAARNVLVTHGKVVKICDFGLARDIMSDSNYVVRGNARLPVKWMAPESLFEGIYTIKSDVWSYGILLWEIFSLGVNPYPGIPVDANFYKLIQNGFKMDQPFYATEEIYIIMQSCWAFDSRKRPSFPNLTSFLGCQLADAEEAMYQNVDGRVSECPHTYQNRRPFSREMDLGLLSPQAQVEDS
The assay is described as follows: Competition binding assay, FLT3 Kd. The gist of the method: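 Kinases as T7-phage fusions or HEK-293-expressed DNA-tagged constructs competed against immobilized biotinylated ligand on streptavidin beads, 1 h at room temperature in binding buffer. Bound kinase eluted and quantified by qPCR; Kd from eleven-point threefold dilution series.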

In the next assay the test system is M-NFS-60 cells. Description: M-NFS-60 cell proliferation assay (Alamar Blue). The class given is cell-based, mouse. The following applies: Mus musculus, read-out: CSF1R M-NFS-60 CTB:IC50. In a few lines: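 Alamar Blue reduction (3 h; 560/590 nm) measured viability after 72 h, 37 °C treatment with nine half-log compound concentrations at 0.5% DMSO. Cells: M-CSF-dependent (20 ng/mL) murine M-NFS-60 in RPMI plus 10% FBS. IC50s, averaged from duplicates, reflect half-maximal inhibition of proliferation relative to control.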

Where [1] appears, read: 72 hours incubation, M-CSF 20 ng/mL.

Read-outs that look alike come from different tables or passages of the source. A value given as a limit tells only on which side of the number the result lay.

A word on the Kd: it is the constant that tells how readily two partners part at equilibrium. As a reminder, the IC50 is the midpoint of a concentration-inhibition curve. `O[C@@H]1CCCC[C@H]1Nc1nc2ccc(Cc3cnc4cc(-n5ccnc5)ccn34)cc2s1` [Example 214, (1R,2R)-2-((6-((7-(1H-imidazol-1-yl)imidazo[1,2-a]pyridin-3-yl)methyl)benzo[d]thiazol-2-yl)amino)cyclohexanol] displayed a Kd on FLT3 (competition binding) of more than 5000 nM. Besides, the IC50 with M-NFS-60 cells (M-NFS-60 cell proliferation) lay in the range of 50 to 400 nM.

`OC1(CNc2nc3ccc(Cn4cnc5cccnc54)cc3s2)CCCCC1` [Example 75, 1-(((6-((3H-imidazo[4,5-b]pyridin-3-yl)methyl)benzo[d]thiazol-2-yl)amino)methyl)cyclohexanol]: the Kd at FLT3 lay in the range of 1000 to 5000 nM. Further, in the assay on M-NFS-60 cells (setting [1]), the IC50 fell in the range of 50 to 400 nM.

Take `OC[C@@H]1CCCC[C@H]1Nc1nc2ccc(Cn3cnc4cccnc43)cc2s1` [Example 66, ((1R,2R)-2-((6-((3H-imidazo[4,5-b]pyridin-3-yl)methyl)benzo[d]thiazol-2-yl)amino)cyclohexyl)methanol]: the Kd at FLT3 is more than 5000 nM. For the same molecule, in the assay on M-NFS-60 cells (setting [1]), the IC50 was 400 to 1500 nM.

At FLT3 (competition binding), `OC1CCN(c2ccn3c(Cc4ccc5nc(N[C@@H]6CCCC[C@H]6O)sc5c4)cnc3c2)CC1` [Example 199, 1-(3-((2-(((1R,2R)-2-hydroxycyclohexyl)amino)benzo[d]thiazol-6-yl)methyl)imidazo[1,2-a]pyridin-7-yl)piperidin-4-ol] gave a Kd of more than 5000 nM. Besides, the IC50 in the assay on M-NFS-60 cells (M-NFS-60 cell proliferation) is more than 1500 nM.

`COc1cc2ncn(Cc3ccc4nc(NCC5CCCCC5)oc4c3)c2cc1OC` [Example 35, N-(cyclohexylmethyl)-6-((5,6-dimethoxy-1H-benzo[d]imidazol-1-yl)methyl)benzo[d]oxazol-2-amine] had a Kd at FLT3 not above 200 nM. Also, in the assay on M-NFS-60 cells (setting [1]), the IC50 lay in the range of 50 to 400 nM.

With `O[C@@H]1CCCC[C@H]1Nc1nc2ccc(Cn3cnc4cc(CN5CCOCC5)cnc43)cc2s1` [Example 82, (1R,2R)-2-((6-((6-(morpholinomethyl)-3H-imidazo[4,5-b]pyridin-3-yl)methyl)benzo[d]thiazol-2-yl)amino)cyclohexanol], the Kd on FLT3 was in the range of 1000 to 5000 nM. The IC50 in the assay with M-NFS-60 cells (setting [1]) was 400 to 1500 nM.

Molecule `O[C@@H]1CCCC[C@H]1Nc1nc2ccc(Cc3cnc4cc(-n5ccnn5)ccn34)cc2s1` [Example 218, (1R,2R)-2-((6-((7-(1H-1,2,3-triazol-1-yl)imidazo[1,2-a]pyridin-3-yl)methyl)benzo[d]thiazol-2-yl)amino)cyclohexanol] showed a Kd at FLT3 (competition binding) of 1000 to 5000 nM. For the same molecule, in the assay on M-NFS-60 cells (M-NFS-60 cell proliferation), the IC50 was 50 to 400 nM.

The molecule `OCC1(CNc2nc3ccc(Cn4cnc5cccnc54)cc3s2)CCCCC1` [Example 76, (1-(((6-((3H-imidazo[4,5-b]pyridin-3-yl)methyl)benzo[d]thiazol-2-yl)amino)methyl)cyclohexyl)methanol] registered a Kd at FLT3 not above 200 nM. Moreover, in the assay with M-NFS-60 cells (setting [1]), the concentration for half-maximal inhibition (IC50) was in the range of 50 to 400 nM.

The molecule `Cn1cc(-c2cnc3c(c2)ncn3Cc2ccc3nc(N[C@@H]4CCCC[C@H]4O)sc3c2)cn1` [Example 39, (1R,2R)-2-((6-((6-(1-methyl-1H-pyrazol-4-yl)-3H-imidazo[4,5-b]pyridin-3-yl)methyl)benzo[d]thiazol-2-yl)amino)cyclohexanol] yielded a Kd on FLT3 not above 200 nM. In the assay on M-NFS-60 cells (setting [1]), the IC50 is not above 50 nM.

In turn, `OC[C@H](Nc1nc2ccc(Cn3cnc4cccnc43)cc2s1)C1CCCCC1` [Example 64, (R)-2-((6-((3H-imidazo[4,5-b]pyridin-3-yl)methyl)benzo[d]thiazol-2-yl)amino)-2-cyclohexylethanol] yielded a Kd on FLT3 of 200 to 1000 nM. Moreover, the IC50 in the assay with M-NFS-60 cells (setting [1]) lay in the range of 50 to 400 nM.

On FLT3, `CS(=O)(=O)O.O[C@@H]1CCCC[C@H]1Nc1nc2ccc(Cn3cnc4cccnc43)cc2s1` [Example 3, (1R,2R)-2-((6-((3H-imidazo[4,5-b]pyridin-3-yl)methyl)benzo[d]thiazol-2-yl)amino)cyclohexanol methanesulfonic acid] came in with a Kd of 1000 to 5000 nM. Further, the IC50 with M-NFS-60 cells (setting [1]) was in the range of 50 to 400 nM.

`O[C@@H]1CCCC[C@H]1Nc1nc2ccc(Cn3cnc4cccnc43)cc2o1` [Example 56, (1R,2R)-2-((6-((3H-imidazo[4,5-b]pyridin-3-yl)methyl)benzo[d]oxazol-2-yl)amino)cyclohexanol] registered a Kd on FLT3 of 200 to 1000 nM. The IC50 in the assay with M-NFS-60 cells (setting [1]) was in the range of 50 to 400 nM.

Molecule `O[C@@H]1CCCC[C@H]1Nc1nc2ccc(Cn3cnc4cc(-c5cc[nH]n5)ccc43)cc2s1` [Example 211, (1R,2R)-2-((6-((5-(1H-pyrazol-3-yl)-1H-benzo[d]imidazol-1-yl)methyl)benzo[d]thiazol-2-yl)amino)cyclohexanol] had a Kd on FLT3 (competition binding) not above 200 nM. Besides, in the assay with M-NFS-60 cells (M-NFS-60 cell proliferation), the IC50 is not above 50 nM.
